The MIC is the least concentration at which growth counts as inhibited. A higher MIC goes with weaker potency. What is called inhibition is the change of the read-out against control, counted positive when it falls. As a reminder, the IC50 is the concentration needed to halve the response being measured.

Data set [1] has as its system Mycobacterium tuberculosis. Put plainly: Antibacterial activity against Mycobacterium tuberculosis H37Ra. It counts as functional.
Data set [2] in a line: Cytotoxicity against HEK293 cells assessed as inhibition rate of cell growth at 100 uM incubated for 24 hrs by CCK8 assay relative to control. The class given is toxicity, cell-based. The note with it: human. (Tetrazolium assays rely on reduction of a dye to a coloured formazan, in cell work by metabolically active cells.)
In data set [3] the test system is Staphylococcus aureus. Put plainly: Antibacterial activity against TMP-resistant Staphylococcus aureus BHKS 723 incubated for 24 hrs by CLSI based broth microdilution assay. The class given is functional.
In data set [4] the target is T1, Dihydrofolate reductase (Homo sapiens, UniProt P00374).
T1 sequence (P00374 whole entry): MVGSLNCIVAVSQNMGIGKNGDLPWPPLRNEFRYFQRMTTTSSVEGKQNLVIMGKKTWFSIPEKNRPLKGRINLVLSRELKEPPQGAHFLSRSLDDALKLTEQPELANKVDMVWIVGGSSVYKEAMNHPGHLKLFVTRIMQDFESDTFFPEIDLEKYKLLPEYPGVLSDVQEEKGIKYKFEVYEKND
Put plainly: Inhibition of human DHFR.

The test system of data set [5] is Staphylococcus aureus. Put plainly: Antibacterial activity against TMP-resistant Staphylococcus aureus BHKS 227 incubated for 24 hrs by CLSI based broth microdilution assay. It counts as functional.
Data set [6] concerns the target T2, Dihydrofolate reductase (Mycobacterium tuberculosis, UniProt P9WNX1).
T2 sequence (P9WNX1 whole entry): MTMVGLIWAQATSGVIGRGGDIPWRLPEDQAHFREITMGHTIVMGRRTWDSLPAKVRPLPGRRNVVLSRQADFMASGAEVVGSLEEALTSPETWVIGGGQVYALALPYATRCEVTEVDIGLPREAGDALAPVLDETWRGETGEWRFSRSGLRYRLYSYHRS
Put plainly: Inhibition of Mycobacterium tuberculosis DHFR.

For data set [7], the system named is Staphylococcus aureus. Put plainly: Antibacterial activity against Staphylococcus aureus ATCC 25923 incubated for 24 hrs by CLSI based broth microdilution assay. The class given is functional. A general note: Dilution methods test growth across graded concentrations, often in twofold steps.
Data set [8] relates to Staphylococcus aureus. Put plainly: Antibacterial activity against Staphylococcus aureus USA 300 incubated for 24 hrs by CLSI based broth microdilution assay. It counts as functional.
Data set [9] deals with Staphylococcus aureus. Put plainly: Antibacterial activity against TMP-resistant Staphylococcus aureus BHKS 721 incubated for 24 hrs by CLSI based broth microdilution assay. It counts as functional.
Data set [10] in a line: Cytotoxicity against human NCM460 cells assessed as inhibition rate of cell growth at 100 uM incubated for 24 hrs by CCK8 assay relative to control. The class given is toxicity, cell-based.
For data set [11], the target named is Dihydrofolate reductase (Staphylococcus aureus, UniProt P0A017). Put plainly: Inhibition of Staphylococcus aureus DHFR expressed in Escherichia coli BL21 (DE3) using DHF as substrate preincubated for 10 mins followed by substrate addition measured for 10 mins in presence of NADPH by spectrophotometry.
Chain of Dihydrofolate reductase (Staphylococcus aureus, UniProt P0A017) (P0A017 whole entry): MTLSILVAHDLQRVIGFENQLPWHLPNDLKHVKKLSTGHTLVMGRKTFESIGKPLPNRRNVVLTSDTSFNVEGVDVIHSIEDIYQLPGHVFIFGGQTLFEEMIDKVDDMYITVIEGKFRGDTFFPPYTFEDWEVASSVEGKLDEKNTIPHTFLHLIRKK
Data set [12] has as its system Dihydrofolate reductase (Staphylococcus aureus). The note with it: dose 100.0 nM.
In data set [13] the test system is Staphylococcus aureus. Put plainly: Antibacterial activity against TMP-resistant Staphylococcus aureus BHKS 231 incubated for 24 hrs by CLSI based broth microdilution assay. It counts as functional.

Values after ≈ are worked out from the molar mass of the structure shown. Some results are limits rather than exact numbers.

As for `COc1cc(C(C)C)c(Oc2cnc(N)nc2N)cc1I`, the MIC was found to be 50 µg/mL (≈ 125 µM) in [1]; 8 µg/mL (≈ 20 µM) against Staphylococcus aureus [3]; 0.5 µg/mL (≈ 1.25 µM) with Staphylococcus aureus [5]; 0.125 µg/mL (≈ 0.312 µM) in the data set on Staphylococcus aureus [7]; 0.063 µg/mL (≈ 0.157 µM) in the data set with Staphylococcus aureus [8]; 8 µg/mL (≈ 20 µM) in the data set on Staphylococcus aureus [9]. The inhibition at 24 h, 100 µM is 26.1% in [2] and 32.1% in data set [10]. Further, the IC50 against Dihydrofolate reductase [4] worked out at 176000 nM; at Dihydrofolate reductase [6], 3500 nM; at Dihydrofolate reductase [11], 32.9 nM.

For `COc1cc(C(C)C)c(Oc2cnc(N)nc2N)cc1-c1ccc(C(C)C)cc1`, the inhibition at 24 h, 100 µM worked out at 46.9% in data set [2] and 44% in [10]. Further, the MIC in the data set with Staphylococcus aureus [3] is 4 µg/mL (≈ 10.2 µM); in the data set with Staphylococcus aureus [5] it was 1 µg/mL (≈ 2.55 µM); against Staphylococcus aureus [7], 0.25 µg/mL (≈ 0.637 µM); in the data set on Staphylococcus aureus [8], 0.25 µg/mL (≈ 0.637 µM); against Staphylococcus aureus [9], 4 µg/mL (≈ 10.2 µM). For the same molecule, the IC50 came to 2910 nM against Dihydrofolate reductase [4] and 1.81 nM on Dihydrofolate reductase [11]. In [12], the inhibition was 55.7%.

For `CCCCCOc1cc(C(C)C)c(Oc2cnc(N)nc2N)cc1I`, the inhibition at 24 h, 100 µM in data set [2] was 64.9%; in [10] it was 41.5%. Besides, the MIC with Staphylococcus aureus [3] worked out at 4 µg/mL (≈ 8.77 µM); in the data set with Staphylococcus aureus [5] it was 2 µg/mL (≈ 4.38 µM); with Staphylococcus aureus [7], 0.125 µg/mL (≈ 0.274 µM); against Staphylococcus aureus [8] it was 0.125 µg/mL (≈ 0.274 µM); with Staphylococcus aureus [9] it was 4 µg/mL (≈ 8.77 µM). On Dihydrofolate reductase [11], the IC50 was determined as 8.36 nM. The inhibition in data set [12] was found to be 45.8%.

`COc1ccc(Oc2cnc(N)nc2N)cc1-c1ccc(C(F)(F)F)cc1`: the inhibition at 24 h, 100 µM in [2] came to 42.3%; in data set [10], 68.3%. Also, the MIC against Staphylococcus aureus [3] stood at 4 µg/mL (≈ 10.6 µM); with Staphylococcus aureus [5], 4 µg/mL (≈ 10.6 µM); in the data set with Staphylococcus aureus [7], 0.031 µg/mL (≈ 0.0824 µM); in the data set with Staphylococcus aureus [8], 0.016 µg/mL (≈ 0.0425 µM); against Staphylococcus aureus [9] it was 4 µg/mL (≈ 10.6 µM). Also, the IC50 at Dihydrofolate reductase [11] is 8.29 nM. The inhibition in data set [12] is above 100%.

For the molecule `Cc1cc(NS(=O)(=O)c2ccc(N)cc2)no1` [SULFAMETHOXAZOLE], the MIC against Staphylococcus aureus [3] was 4 µg/mL (≈ 15.8 µM); with Staphylococcus aureus [5] it was 4 µg/mL (≈ 15.8 µM); with Staphylococcus aureus [7], 2 µg/mL (≈ 7.9 µM); against Staphylococcus aureus [13], 256 µg/mL (≈ 1010 µM); in the data set on Staphylococcus aureus [8] it was 2 µg/mL (≈ 7.9 µM); with Staphylococcus aureus [9], 0.5 µg/mL (≈ 1.97 µM).

Take `COc1ccc(Oc2cnc(N)nc2N)cc1-c1ccc(OC(F)(F)F)cc1`: the values for the inhibition at 24 h, 100 µM in data set [2] and in [10] were 39.4% and 69.9%, respectively. For the same molecule, the MIC against Staphylococcus aureus [3] is 4 µg/mL (≈ 10.2 µM); in the data set with Staphylococcus aureus [5] it was 2 µg/mL (≈ 5.1 µM); in the data set with Staphylococcus aureus [7], 0.002 µg/mL (≈ 0.0051 µM); in the data set on Staphylococcus aureus [8], 0.002 µg/mL (≈ 0.0051 µM); in the data set with Staphylococcus aureus [9], 4 µg/mL (≈ 10.2 µM). In addition, the IC50 at Dihydrofolate reductase [11] was found to be 15.9 nM. The molecule also had an inhibition in data set [12] of 51.1%.

As to `CCCCOc1cc(C(C)C)c(Oc2cnc(N)nc2N)cc1I`, the values for the inhibition at 24 h, 100 µM in [2] and in data set [10] were 42.2% and 72.9%, respectively. The MIC in the data set on Staphylococcus aureus [3] was found to be 8 µg/mL (≈ 18.1 µM); in the data set with Staphylococcus aureus [5] it was 1 µg/mL (≈ 2.26 µM); in the data set with Staphylococcus aureus [7], 0.125 µg/mL (≈ 0.283 µM); in the data set with Staphylococcus aureus [8], 0.125 µg/mL (≈ 0.283 µM); in the data set on Staphylococcus aureus [9], 4 µg/mL (≈ 9.04 µM). For the same molecule, the IC50 at Dihydrofolate reductase [11] was 36.7 nM. In data set [12], this molecule yielded an inhibition of 50.8%.

Regarding `COc1cc(C(C)C)c(Oc2cnc(N)nc2N)cc1-c1ccc(OC(F)(F)F)cc1`, the results for the inhibition at 24 h, 100 µM in data set [2] and in data set [10] were 43.5% and 63.6%, respectively. The MIC amounted to 8 µg/mL (≈ 18.4 µM) against Staphylococcus aureus [3]; 1 µg/mL (≈ 2.3 µM) in the data set on Staphylococcus aureus [5]; 0.25 µg/mL (≈ 0.575 µM) against Staphylococcus aureus [7]; 0.25 µg/mL (≈ 0.575 µM) with Staphylococcus aureus [8]; 8 µg/mL (≈ 18.4 µM) against Staphylococcus aureus [9]. Besides, the IC50 at Dihydrofolate reductase [11] stood at 19.1 nM. In [12], this molecule registered an inhibition above 100%.

In the case of `COc1cc(C(C)C)c(Oc2cnc(N)nc2N)cc1-c1ccc(C(F)(F)F)cc1`, the inhibition at 24 h, 100 µM was found to be 27.4% in data set [2] and 65% in [10]. Also, the MIC stood at 16 µg/mL (≈ 38.2 µM) with Staphylococcus aureus [3]; 2 µg/mL (≈ 4.78 µM) with Staphylococcus aureus [5]; 0.5 µg/mL (≈ 1.19 µM) with Staphylococcus aureus [7]; 0.5 µg/mL (≈ 1.19 µM) against Staphylococcus aureus [8]; 16 µg/mL (≈ 38.2 µM) against Staphylococcus aureus [9]. Besides, the IC50 on Dihydrofolate reductase [11] turned out to be 60.2 nM. Moreover, in data set [12], the inhibition was determined as 68.1%.

With `COc1cc(C(C)C)c(Oc2cnc(N)nc2N)cc1-c1ccc2c(c1)OCO2`, the inhibition at 24 h, 100 µM was determined as 26.8% in data set [2] and 62.3% in data set [10]. For the same molecule, the MIC turned out to be 16 µg/mL (≈ 40.6 µM) against Staphylococcus aureus [3]; 2 µg/mL (≈ 5.07 µM) in the data set with Staphylococcus aureus [5]; 0.5 µg/mL (≈ 1.27 µM) in the data set on Staphylococcus aureus [7]; 0.25 µg/mL (≈ 0.634 µM) against Staphylococcus aureus [8]; 32 µg/mL (≈ 81.1 µM) against Staphylococcus aureus [9]. At Dihydrofolate reductase [11], the IC50 turned out to be 34.8 nM. In data set [12], this molecule displayed an inhibition above 100%.

For the molecule `CC(C)c1cc(OCC2CCC2)c(I)cc1Oc1cnc(N)nc1N`, the results for the inhibition at 24 h, 100 µM in [2] and in [10] were 57.9% and 13.2%, respectively. For the same molecule, the minimum inhibitory concentration (MIC) against Staphylococcus aureus [3] is 4 µg/mL (≈ 8.8 µM); in the data set with Staphylococcus aureus [5] it was 1 µg/mL (≈ 2.2 µM); against Staphylococcus aureus [7] it was 0.125 µg/mL (≈ 0.275 µM); in the data set with Staphylococcus aureus [8], 0.125 µg/mL (≈ 0.275 µM); in the data set with Staphylococcus aureus [9] it was 4 µg/mL (≈ 8.8 µM). Moreover, the IC50 at Dihydrofolate reductase [11] worked out at 7.69 nM. This molecule had an inhibition in data set [12] of 61.3%.

Values taken from ChEMBL document CHEMBL5528082 (J Med Chem, 2024).
